# Columns and labels:
# [1] = test system: vancomycin-resistant enterococci; assay: broth micro-dilution, mean geometric MIC; format: cell-based, Enterococcus faecium and Enterococcus faecalis; details: enterococci, 24-hour incubation
# [2] = test system: vancomycin-susceptible enterococci; assay: broth micro-dilution, mean geometric MIC; format: cell-based, Enterococcus faecium and Enterococcus faecalis; details: enterococci, 24-hour incubation
# [3] = test system: Streptococcus pyogenes C203; assay: broth micro-dilution MIC; format: cell-based
# Procedure: (§1) The MIC's were determined using a standard broth micro-dilution assay.
# [4] = test system: Staphylococcus aureus X400; assay: broth micro-dilution MIC; format: cell-based
# Procedure: as §1
# [5] = test system: Staphylococcus aureus SA1199; assay: broth micro-dilution MIC; format: cell-based
# Procedure: as §1
# Entercoccus faecium 276 = assay: broth micro-dilution MIC; format: cell-based
# Procedure: as §1
# [6] = test system: Staphylococcus aureus 446; assay: broth micro-dilution MIC; format: cell-based
# Procedure: as §1
# [7] = test system: Staphylococcus aureus SA1199A; assay: broth micro-dilution MIC; format: cell-based
# Procedure: as §1
# [8] = test system: Staphylococcus aureus 447; assay: broth micro-dilution MIC; format: cell-based
# Procedure: as §1
# [9] = test system: Staphylococcus aureus 491; assay: broth micro-dilution MIC; format: cell-based
# Procedure: as §1
# [10] = test system: Entercoccus faecium 180-1; assay: broth micro-dilution MIC; format: cell-based
# Procedure: as §1
# [11] = test system: Staphylococcus aureus 489; assay: broth micro-dilution MIC; format: cell-based
# Procedure: as §1
# [12] = test system: Staphylococcus aureus X778; assay: broth micro-dilution MIC; format: cell-based
# Procedure: as §1
# [13] = test system: Staphylococcus aureus S13E; format: cell-based
# Procedure: as §1
# [14] = test system: Staphylococcus aureus SA1199B; format: cell-based
# Procedure: as §1
# Escherichia coli EC14 = assay: broth micro-dilution MIC; format: cell-based
# Procedure: (§2) The formula I compounds have in vitro and in vivo activity against Gram-positive pathogenic bacteria. The MIC's were determined using a standard broth micro-dilution assay.
# [15] = test system: Staphylococcus haemolyticus 415; assay: broth micro-dilution MIC; format: cell-based
# Procedure: as §2
# [16] = test system: Enterococcus gallinarum 245; assay: broth micro-dilution MIC; format: cell-based; details: Enterococcus gallinarum 245
# Procedure: as §2
# [17] = test system: Staphylococcus epidermidis 270; assay: broth micro-dilution MIC; format: cell-based
# Procedure: as §2
# [18] = test system: Staphylococcus haemolyticus 105; assay: broth micro-dilution MIC; format: cell-based
# Procedure: as §2
# [19] = test system: Streptococcus pneumoniae P1; assay: broth micro-dilution MIC; format: cell-based
# Procedure: as §2
# [20] = test system: Haemophilus influenzae RD; assay: broth micro-dilution MIC; format: cell-based; details: Haemophilus influenzae RD
# Procedure: as §2
# Entercoccus faecium 180 = assay: broth micro-dilution MIC; format: cell-based; details: Entercoccus faecium 180
# Procedure: as §2
# Entercoccus faecium 2041 = assay: broth micro-dilution MIC; format: cell-based; details: Entercoccus faecium 2041
# Procedure: as §2
SMILES,"mean geometric MIC, Vancomycin Resistant Strains [1]","mean geometric MIC, Vancomycin Sensitive Strains [2]",MIC [3],MIC [4],MIC [5],MIC (Entercoccus faecium 276),MIC [6],MIC [7],MIC [8],MIC [9],MIC [10],MIC [11],MIC [12],MIC [13],MIC [14],MIC (Escherichia coli EC14),MIC [15],MIC [16],MIC [17],MIC [18],further results
CC(C)CC(C(=O)NC1C(=O)NC(CC(N)=O)C(=O)NC2C(=O)NC3C(=O)NC(C(=O)NC(C(=O)O)c4cc(O)cc(O)c4-c4cc3ccc4O)C(OC3CC(C)(N)C(O)C(C)O3)c3ccc(c(Cl)c3)Oc3cc2cc(c3OC2OC(CO)C(O)C(O)C2OC2CC(C)(N)C(O)C(C)O2)Oc2ccc(cc2Cl)C1O)N(C)Cc1ccc(O)cc1 (stereo not drawn) [Compound 257],64 µg/mL,1 µg/mL,≤ 0.06 µg/mL,≤ 0.06 µg/mL,≤ 0.06 µg/mL,≤ 0.06 µg/mL,≤ 0.06 µg/mL,≤ 0.06 µg/mL,0.25 µg/mL,≤ 0.06 µg/mL,≤ 0.06 µg/mL,≤ 0.06 µg/mL,≤ 0.06 µg/mL,≤ 0.06 µg/mL,≤ 0.06 µg/mL,> 64 µg/mL,8 µg/mL,≤ 0.06 µg/mL,0.25 µg/mL,2 µg/mL,MIC [19]: ≤ 0.06 µg/mL; MIC [20]: > 64 µg/mL; MIC (Entercoccus faecium 180): 4 µg/mL; MIC (Entercoccus faecium 2041): ≤ 0.06 µg/mL
CC(C)CC(C(=O)NC1C(=O)NC(CC(N)=O)C(=O)NC2C(=O)NC3C(=O)NC(C(=O)NC(C(=O)O)c4cc(O)cc(O)c4-c4cc3ccc4O)C(OC3CC(C)(N)C(O)C(C)O3)c3ccc(c(Cl)c3)Oc3cc2cc(c3OC2OC(CO)C(O)C(O)C2OC2CC(C)(NCc3ccc4c(c3)CCCC4)C(O)C(C)O2)Oc2ccc(cc2Cl)C1O)N(C)Cc1ccc2c(c1)CCCC2 (stereo not drawn) [Compound 258],8 µg/mL,1 µg/mL,≤ 0.06 µg/mL,2 µg/mL,2 µg/mL,1 µg/mL,1 µg/mL,2 µg/mL,1 µg/mL,1 µg/mL,4 µg/mL,1 µg/mL,1 µg/mL,2 µg/mL,0.25 µg/mL,> 64 µg/mL,2 µg/mL,1 µg/mL,2 µg/mL,1 µg/mL,MIC [19]: ≤ 0.06 µg/mL; MIC [20]: > 64 µg/mL; MIC (Entercoccus faecium 180): 1 µg/mL; MIC (Entercoccus faecium 2041): 0.5 µg/mL
CC(C)CC(C(=O)NC1C(=O)NC(CC(N)=O)C(=O)NC2C(=O)NC3C(=O)NC(C(=O)NC(C(=O)O)c4cc(O)cc(O)c4-c4cc3ccc4O)C(OC3CC(C)(N)C(O)C(C)O3)c3ccc(c(Cl)c3)Oc3cc2cc(c3OC2OC(CO)C(O)C(O)C2OC2CC(C)(NCc3ccc(N(C)c4ccccc4)cc3)C(O)C(C)O2)Oc2ccc(cc2Cl)C1O)N(C)Cc1ccc(N(C)c2ccccc2)cc1 (stereo not drawn) [Compound 260],4.8 µg/mL,1.1 µg/mL,≤ 0.06 µg/mL,4 µg/mL,2 µg/mL,2 µg/mL,2 µg/mL,0.5 µg/mL,4 µg/mL,1 µg/mL,0.25 µg/mL,2 µg/mL,1 µg/mL,4 µg/mL,2 µg/mL,> 64 µg/mL,2 µg/mL,0.25 µg/mL,1 µg/mL,1 µg/mL,MIC [19]: ≤ 0.06 µg/mL; MIC [20]: > 64 µg/mL; MIC (Entercoccus faecium 180): 0.5 µg/mL; MIC (Entercoccus faecium 2041): 1 µg/mL
CC(C)CC(C(=O)NC1C(=O)NC(CC(N)=O)C(=O)NC2C(=O)NC3C(=O)NC(C(=O)NC(C(=O)O)c4cc(O)cc(O)c4-c4cc3ccc4O)C(OC3CC(C)(N)C(O)C(C)O3)c3ccc(c(Cl)c3)Oc3cc2cc(c3OC2OC(CO)C(O)C(O)C2OC2CC(C)(NCc3c4c(cc5ccccc35)CCCC4)C(O)C(C)O2)Oc2ccc(cc2Cl)C1O)N(C)Cc1c2c(cc3ccccc13)CCCC2 (stereo not drawn) [Compound 262],5.7 µg/mL,0.17 µg/mL,≤ 0.06 µg/mL,2 µg/mL,0.5 µg/mL,2 µg/mL,2 µg/mL,≤ 0.06 µg/mL,1 µg/mL,1 µg/mL,≤ 0.06 µg/mL,1 µg/mL,1 µg/mL,1 µg/mL,0.5 µg/mL,> 64 µg/mL,2 µg/mL,2 µg/mL,1 µg/mL,4 µg/mL,MIC [19]: ≤ 0.06 µg/mL; MIC [20]: > 64 µg/mL; MIC (Entercoccus faecium 180): 1 µg/mL; MIC (Entercoccus faecium 2041): 0.5 µg/mL
CNC(CC(C)C)C(=O)NC1C(=O)NC(CC(N)=O)C(=O)NC2C(=O)NC3C(=O)NC(C(=O)NC(C(=O)O)c4cc(O)cc(O)c4-c4cc3ccc4O)C(OC3CC(C)(NCc4ccc(-c5ccc([N+](=O)[O-])cc5)cc4)C(O)C(C)O3)c3ccc(c(Cl)c3)Oc3cc2cc(c3OC2OC(CO)C(O)C(O)C2OC2CC(C)(NCc3ccc(-c4ccc([N+](=O)[O-])cc4)cc3)C(O)C(C)O2)Oc2ccc(cc2Cl)C1O (stereo not drawn) [Compound 263],1.7 µg/mL,0.29 µg/mL,≤ 0.06 µg/mL,0.5 µg/mL,1 µg/mL,0.5 µg/mL,1 µg/mL,≤ 0.06 µg/mL,2 µg/mL,1 µg/mL,≤ 0.06 µg/mL,0.25 µg/mL,0.5 µg/mL,1 µg/mL,1 µg/mL,65 µg/mL,8 µg/mL,8 µg/mL,4 µg/mL,16 µg/mL,MIC [19]: ≤ 0.06 µg/mL; MIC [20]: > 64 µg/mL; MIC (Entercoccus faecium 180): ≤ 0.06 µg/mL; MIC (Entercoccus faecium 2041): ≤ 0.06 µg/mL
